Values after ≈ are worked out from the molar mass of the structure shown. Some results are limits rather than exact numbers.

The nature of data set [1]: Kinetic solubility in PBS. Particulars: pH 7.4, aqueous buffer, kinetic from dmso stock.
Data set [2] deals with M. tuberculosis H37Rv. In words: MIC determination by microplate alamar blue assay (MABA). The format is cell-based. The following applies: Mycobacterium tuberculosis.
Data set [3] concerns HepG2 cell. In words: Cytotoxicity against HepG2 cell, MTT assay. The format is cell-based. Particulars: at a concentration lower than 1.0 μg/mL. The method, then: (§1) HepG2 cells we r e obtained from the Chinese Type Culture Collection (Shanghai, China) and maintained in Dulbecco’s modiﬁed eagle medium (Gibco; #C11995500BT) con‐ taining 1% (v/v) penicillin/streptomycin (Beyotime; #C0222) and 10% (v/v) fetal bovine se‐ rum (Gibco; #GB10270106) in an atmosphere of 5% CO2 at 37 °C. HepG2 cells we r e seeded into 96‐we l l plates at a density of 5,000 cells/well (100 µL total volume) and treated with diﬀerent concentrations of compound 2 and 37 (0, 0.025, 0.2, 1, 5, and 10 µg/mL). After 24 h the medium wa s removed and the cells we r e incubated in a fresh medium containing 5 mg/mL MTT for 4 h. The medium wa s then removed and the precipitated formazan wa s dissolved in 100 µL of DMSO followed by shaking for 10 min. Finally, the absorbance at 570 nm wa s measured on a microplate spectrophotometer. Each treatment wa s performed […]
(§2) Figure S1. Inhibitory activity of compounds 2 and 37 against HepG2 cell. […]

A short description of data set [4]: Cytotoxicity against HepG2 cell, MTT assay. The format is cell-based. The following applies: human, HepG2 cells, at 5.0 μg/mL, 24 h. The method, then: as §1, §2
Data set [5] is described as follows: in vitro. The format is in vitro ADME. Details: dose or concentration left out as unconfirmed. Particulars: human, microsomes, pH 7.4. The method, then: The compounds’ metabolic stability were determined in human liver microsomes. A solution of microsomes (0.2 mg/mL) containing the compounds […], NADPH (1 mM), and phosphate buffer (100 mM, pH 7.4) were prepared. Pre-incubation was conducted at 37 °C for 10 min. There was addition of 50 µL and 5 mM NADPH to initiate the reaction. At 5, 15, 30, 60, or 120 min, 30 µL of reaction solution was taken out and quenched with 300 µL internal standard tolbutamide (10 ng/mL) in cold CH3CN. The mixture was centrifuged at 6000 rpm for 15 min at 4 °C. Then, 100 μL supernatant was diluted with 100 uL ultrapure water (Millipore, ZMQS50F01). The solution was analyzed via LC/MS analysis.

Data set [6] relates to M. tuberculosis H37Rv. Briefly: [14C]-acetate metabolic labeling, TLC analysis of lipids. In kind it is cell-based. The following applies: Mtb H37Rv, 10 × MIC, 100 × MIC, 24 h, compared to control bacteria.
A short description of data set [7]: Pharmacokinetic study in mice. The format is in vivo. The following applies: male, ICR, mouse, plasma; for clearance: read-out: Clint (hepatic clearance) (converted); for bioavailability: oral, p.o. 10 mg/kg vs i.v. 2 mg/kg, read-out: F (oral bioavailability). From the text:
Animal Care and Welfare Committee of Shanghai Institute of Materia Medica, Chinese Academy of Sciences approved all animal protocols. All animal programs are in compliance with the Guide for the Care and Use of Laboratory Animals issued by Shanghai Association on Laboratory Animal Care (SALAC). SPF male ICR mice weighing 25–27 g were divided into two groups, three mice in each group. The tested compounds were administrated via oral and intravenous injection, separately. […] The compound was co-dissolved by using 0.5% carboxymethyl cellulose for p.o. administration, and 10% DMSO/40%PEG400/40% water was used for i.v. administration, respectively. After oral dosing or i.v. administration, the blood was sampled at 5, 15, 30 min, and 1, 2, 4, 7, and 24 h. The sample plasma was harvested and stored at −80 °C for analysis. Based on noncompartmental analysis (Pharsight Corporation, Sunnyvale, CA, USA), the pharmacokinetic data were analyzed using WinNonlin software version 6.3.

The subject of data set [8] is E. coli. Briefly: Inhibitory potency against E. coli. The format is cell-based. Particulars: at 16 µg/mL.
The test system of data set [9] is M. tuberculosis H37Rv. Briefly: In vivo efficacy, mouse model acutely infected with Mtb H37Rv, lung CFU. Particulars: BALB/C mice, oral 50 mg/kg once per day for 4 weeks except weekends.
Data set [10] addresses T1, recombinant M. tuberculosis DprE1 enzyme (Mycobacterium tuberculosis, UniProt P9WJF1).
T1 construct: made in house; host or cells: E. coli
Briefly: DprE1 inhibition, Amplex Red/peroxidase coupled assay. The format is biochemical. Particulars: Mtb DprE1.

Data set [11] deals with Mycobacterium tuberculosis. Details: method as in PMID 24500695. Particulars: whole-cell activity; cited from earlier work.
A short description of data set [12]: physchem. Particulars: pH 7.4, aqueous buffer, kinetic from dmso stock.

T1 sequence (P9WJF1 whole entry): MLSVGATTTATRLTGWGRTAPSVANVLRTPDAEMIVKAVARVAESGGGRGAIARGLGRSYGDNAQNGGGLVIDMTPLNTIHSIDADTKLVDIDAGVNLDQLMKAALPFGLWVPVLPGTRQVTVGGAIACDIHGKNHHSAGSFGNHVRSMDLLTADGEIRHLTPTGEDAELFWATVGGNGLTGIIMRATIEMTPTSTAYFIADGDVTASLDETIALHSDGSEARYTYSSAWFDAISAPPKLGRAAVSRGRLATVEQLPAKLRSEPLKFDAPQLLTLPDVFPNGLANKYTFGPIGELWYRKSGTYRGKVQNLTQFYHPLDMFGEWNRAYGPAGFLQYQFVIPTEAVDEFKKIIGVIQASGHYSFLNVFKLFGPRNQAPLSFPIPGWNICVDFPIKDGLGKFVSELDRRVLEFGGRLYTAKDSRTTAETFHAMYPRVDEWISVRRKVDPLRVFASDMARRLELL

`CN(Cc1cn(-c2ccccc2)nn1)c1nc(=O)c2cc(C(F)(F)F)cc([N+](=O)[O-])c2s1` [Compound 2, 2-{methyl[(1-phenyl-1H-1,2,3-triazol-4-yl)methyl]amino}-BTZ] showed a solubility at 4 h in [1] of 0.13 µg/mL (≈ 0.281 µM). Moreover, the MIC in [2] (168 h, Mtb H37Rv, MABA) stood at 9 nM. Further, it took 9 nM to inhibit growth in data set [2] (Mtb H37Rv, MABA) (MIC). For the same compound, the “Inhibition of HepG2 cell viability” value in data set [3] is listed as “No inhibition of cell viability”. In data set [4], this compound came in with a viability at 24 h, 5 μg/mL of 72 to 75%. In data set [5], the intrinsic clearance (CLint scaled) came out at 17.3 mL/min/kg and the half-life came out at 1.67 h. Further, the “Lipid profile after [14C]-acetate labeling” value (“Lipid profile” below) in [6] was “accumulated trehalose monomycolates (TMM) and trehalose dimycolates (TDM)”. In data set [7] (IV 2 mg/kg), this compound gave an exposure (AUC) of 1210 ng·h/mL, a Cmax of 1250 ng/mL, a mean residence time (MRT) of 1.5 h and a half-life of 1.1 h. Moreover, in [7] (IV 2 mg/kg), the clearance is 27.8 mL/min/kg. In [7] (PO 10 mg/kg), this compound showed an AUC of 2190 ng·h/mL, a maximum concentration (Cmax) of 1800 ng/mL, a mean residence time (MRT) of 2 h and a half-life of 1.3 h. Further, the bioavailability in [7] turned out to be 35.7%. Besides, the “Inhibitory potency against E. coli” value in data set [8] is recorded as “no obvious activity”. In addition, the “Reduction of bacteria load in the lungs compared to the control group” value (shortened to “Reduction of bacteria load in the lungs”) in data set [9] is reported as “barely displayed efficacy”. In addition, the IC50 in [10] is 20 to 750 nM.
`CN(Cc1nnc(-c2ccccc2)o1)c1nc(=O)c2cc(C(F)(F)F)cc([N+](=O)[O-])c2s1` [Compound 37, 2-{methyl[(5-phenyl-1,3,4-oxadiazol-2-yl)methyl]amino}-BTZ]: the solubility at 4 h in data set [1] turned out to be 0.25 µg/mL (≈ 0.539 µM). In data set [2] (Mtb H37Rv, MABA), this compound gave an MIC of 6 nM. The “Inhibition of HepG2 cell viability” value in data set [3] was “No inhibition of cell viability”. This compound displayed a viability at 24 h, 5 μg/mL in [4] of 72 to 75%. In [5], this compound registered a CLint scaled of 25.5 mL/min/kg and a half-life of 1.14 h. Moreover, the “Lipid profile” value in data set [6] is “accumulated trehalose monomycolates (TMM) and trehalose dimycolates (TDM)”. In data set [7] (IV 2 mg/kg), this compound showed an exposure (AUC) of 528 ng·h/mL, a Cmax of 1860 ng/mL, an MRT of 0.4 h and a half-life of 0.3 h. For the same compound, the clearance in data set [7] (IV 2 mg/kg) is 64 mL/min/kg. For the same compound, in data set [7] (PO 10 mg/kg), the AUC is 1870 ng·h/mL, the concentration peaked (Cmax) at 1890 ng/mL, the mean residence time MRT was 0.9 h and the half-life is 0.6 h. Further, the bioavailability in data set [7] was 70.6%. The “Inhibitory potency against E. coli” value in data set [8] was “no obvious activity”. The “Reduction of bacteria load in the lungs” value in data set [9] stood at 1.2 logs. For the same compound, the half-maximal inhibitory concentration (IC50) in data set [10] was 20 to 750 nM.
`O=c1nc(N2CCN(CC3CCCCC3)CC2)sc2c([N+](=O)[O-])cc(C(F)(F)F)cc12` [PBTZ169, reference compound]: the “minimal inhibitory concentration (MIC)” value in data set [11] is listed as “lower than 0.004 µM”. Moreover, the MIC was 0.2 ng/mL in [2] (H37Rv, Table S1) and below 4 nM in data set [2] (Mtb H37Rv, MABA). In data set [6], the “Lipid profile” value is “accumulated trehalose monomycolates (TMM) and trehalose dimycolates (TDM)”. The same compound displayed a solubility at 4 h in data set [12] below 0.011 µg/mL. In addition, the “Reduction of bacteria load in the lungs” value in [9] is 3 logs.
